Patent US8283375B2, “2, 6 xylidine derivatives for the treatment of pain” (Krisani Biosciences (P) Ltd., priority 2011, dated 2012)

Tested on: spinal nerve ligation model for neuropathic pain in rats
Assay: Von Frey test for mechanical allodynia in Chung spinal nerve (L5-L6) ligation model
Type: in vivo, SD rats
Settings: 150 mg/kg; for analgesic efficacy on mechanical allodynia compared to Vehicle (conclusion in words): b105: 2 and 4.5 hours post-treatment on day 14 and 4.5 hours on day 21, b109: 2 hours post-treatment on days 14 and 21
Excerpt: Experimental animals were male SD rats with a starting weight of 230-250 grams. Total number of animals were n=90 for surgery and n=60 after selection. The animals were caged in groups of 3 in a temperature and humidity controlled area. They were maintained on a 12 hr light/dark cycle and had ad libitum access to food and water.
Neuropathic pain inducement was done by following principles of Chung induced model. The SD rats were anesthetized using ketamine/xylazine sodium. The rats were shaved and placed in prone position for surgery. The L5-L6 spinal nerves were surgically litigated. The rats were returned to their cages for recuperation and recovery under comfortable warm conditions using heat lamps.
After seven days of surgery a pre selection was performed. Animals that indicate signs of post operative pain were to be selected to proceed. Pain is detected by observing when one or more of the criteria are met as follows. Licking of the operated paw, accompanied by gentle biting or pulling on the nails with the mouth; placing the leg in the air; bearing weight on the side contra-lateral to the nerve injury; deformities of the hind paw and abnormal posture and walking; weakness of the left hind paw. […] However, the animal must be able to move its leg to ensure that the L4 spinal nerve is intact. If the animal cannot move its leg, it was excluded from the study.
Second level of selection of the rats was done on day 14 after the surgery. Von Frey test was performed on the preselected rats after day 7 on day 14. Using Von Frey methodology, animals with a pain threshold of ≦26 g for the operated leg will be included in the study. After this selection step, the animals were randomly placed into their experimental groups.
Blank, positive control and test compound: Blank was just the medium used for dissolving other compounds. The positive control was Gabapentin and the test compound was the final compound of formula 1 discussed in the instant disclosure. Three types of experimental groups were formed. Different types of chemicals such as Vehicle and Control were used to determine the efficacy of the chemicals as well comparison of the instant disclosed compound of formula 1, with a positive control was performed. The final compound of the instant disclosure was administered at 100 mg/kg and 150 mg/kg body weight as two different groups. The Gabapentin was administered at 150 mg/kg body weight.
On day 14 blank compound and final compound will be administered once daily starting on study day 14 through study day 21. Gabapentin, the positive control, will be administered 2 hours prior to pain testing on study days 14 and 21. […]
Pain Response Evaluation: Pain response was evaluated using Von Frey test for mechanical allodynia. […]

SMILES | duration of analgesic activity / activity compared with gabapentin (in words) | analgesic efficacy on mechanical allodynia compared to Vehicle (conclusion in words) | analgesic efficacy on mechanical allodynia compared to Vehicle (conclusion in words) (listed as compound of formula 1)
CCN(CCOC(=O)CCCCC1CCSS1)CC(=O)Nc1c(C)cccc1C (stereo not shown) [KRB-5b] | prolonged analgesic activity compared to gabapentin | effective as a pain analgesic item | effective in treating the spinal nerve ligation model for neuropathic pain in rats
NCC1(CC(=O)O)CCCCC1 [Gabapentin, reference compound] | active only at 2 hours post dosing |  | 
